Data taken from patent US11878013B2, “Isoquinoline derivative, preparing method thereof, and pharmaceutical composition for preventing or treating autophagy related diseases containing the same as an active ingredient” (Korea Research Institute of Chemical Technology, priority 2021, dated 2024).

Assays:
artificial skin tissue = test: Skin toxicity test on artificial skin (MTT); format: cell-based
Protocol: In order to evaluate the skin toxicity that may be induced upon skin contact of the compound of Example 1 of the present invention, the following experiment was performed using the artificial skin prepared with a structure similar to the skin of a living body.
Particularly, the experiment was performed according to OECD Guideline for the Testing of Chemicals No. 439, OECD (2010) and the method recommended by the manufacturer (Tegoscience).
First, the artificial skin cultured in agarose medium was transferred to a 12-well cell culture plate, to which culture medium was added, followed by culture in a humidified 37° C. 5% CO2 incubator for one day. The medium on the artificial skin culture surface was eliminated, and 90 μl of the compound of Example 1 of the present invention diluted with PBS was evenly applied to the skin surface, followed by incubation at room temperature for 15 minutes. The cell surface was washed twice with 10 ml of PBS, and a fresh culture medium was added, followed by incubation in a humidified 37° C. 5% CO2 incubator for 42 hours. In order to measure the viability of the skin, the artificial skin was transferred to a 12-well plate containing 2 ml of MTT solution (0.3 mg/ml), followed by culture for 3 hours. The stained artificial skin tissue was taken and transferred to a tube containing 500 μl of 0.04 N-isopropanol, and then incubated with shaking for 4 hours to decolorize. The solution was centrifuged at 13,000 rpm for 5 minutes, 100 μl of the supernatant was transferred to each well of a 96-well plate, and absorbance was measured at 570 nm.

zebrafish = test: Fatty liver inhibitory effect in tamoxifen-treated zebrafish juvenile fish (LipidGreen2 staining); format: in vivo
Protocol: In order to evaluate the inhibitory efficacy of the novel isoquinoline derivative of the present invention on fatty liver, an experiment was performed as follows using LipidGreen2 staining reagent capable of staining lipid droplets.
Particularly, the zebrafish used in this Experimental Example were juvenile fish 5 days after fertilization. Healthy juvenile fish were placed in a 24-well plate (10/well), and 1 ml of egg water was added to each well of the plate. As a negative control that could not regulate fatty liver, DMSO diluted at 0.4% was exposed to juvenile fish, and tamoxifen (Sigma-Aldrich, T5648) diluted at 5 μM was exposed to juvenile fish to control […] fatty liver. In order to investigate the fatty liver inhibitory efficacy of the compound of Example 1 of the present invention, the compound (0.5 μM, 1 μM and 5 μM) was mixed with 5 μM tamoxifen and exposed to juvenile fish (final volume of each well: 2 ml). The 24-well plate containing the compound was wrapped in foil to block light, and then incubated in a 28° C. incubator for 22 hours. The plate was washed with egg water 3 times for 5 minutes to remove the compound from each well. For fat-specific staining, LipidGreen2 diluted at 5 μM was exposed to juvenile fish for 30 minutes, and then washed 3 times with egg water for 5 minutes. To evaluate the fatty liver of zebrafish juvenile fish, the developing embryo was anesthetized with Tricaine (4 g/L), and then photographed on 3% methyl cellulose. As the equipment for photographing the developing embryo, a LEICA MZ10F fluorescence microscope, a LEICA DFC425 camera, and Leica Application Suite software (v4.5) were used. For the fluorescence wavelength, a GFP Plants filter set (Excitation 470/40 nm, Emission 525/50 nm) was used. To quantify the liver area and the degree of fat staining of juvenile fish on the image, the area and the fluorescence intensity of the liver part of each image were quantified using ImageJ 1.50i software (National Institutes of Health, USA) and converted into heatmap images.

[1] = tested on: artificial corneal tissue; test: Ocular toxicity test on artificial cornea (MTT); format: cell-based; conditions: up to 50 μM, the maximum concentration
Protocol: In order to evaluate the ocular toxicity that may be induced upon ocular exposure of the compound of Example 1 of the present invention, the following experiment was performed using the cultured artificial cornea.
The artificial corneal tissue cultured in agarose medium was transferred to a 12-well cell culture plate, to which culture medium was added, followed by culture in a humidified 37° C. 5% CO2 incubator for one day. The medium on the artificial cornea culture surface was eliminated, and 30 μl of the compound of Example 1 of the present invention diluted with PBS was evenly applied to the cornea surface, followed by incubation at room temperature for 30 minutes. The cell surface was washed twice with 10 ml of PBS, and a fresh culture medium was added, followed by incubation in a humidified 37° C. 5% CO2 incubator for 30 minutes. In order to measure the viability of the cornea, the artificial cornea was transferred to a 12-well plate containing 2 ml of MTT solution (1 mg/ml), followed by culture for 3 hours. The stained artificial corneal tissue was taken and transferred to a tube containing 1.5 ml of isopropanol, and then incubated with shaking to decolorize. The solution was centrifuged at 13,000 rpm for 5 minutes, 100 μl of the supernatant was transferred to each well of a 96-well plate, and absorbance was measured at 570 nm.

[2] = tested on: VERO, HFL-1, L929, NIH 3T3, CHO-K1 and HMV-II cell lines; test: Non-selective general cytotoxicity test; format: cell-based; conditions: all cell lines, 24 hours
Protocol: In this experiment, the cell lines derived from different species, VERO (African green monkey kidney cell line), HFL-1 (human embryonic lung cell line), L929 (mouse fibroblast cell line), NIH 3T3 (mouse embryonic fibroblast cell line), CHO-K1 (Chinese hamster ovary cell line) and HMV-II (human malignant melanoma cell line), were used.
Particularly, VERO, HFL-1, L929 and NIH 3T3 cell lines were cultured in DMEM, CHO-K1 was cultured in RPMI1640 medium, and HMV-II was cultured in DME/F-12 medium. 10% FBS (Fetal Bovine Serum) and 100 μg/mL of antibiotics were added to each medium. The cells were acclimatized and cultured in a humidified 37° C. 5% CO2 incubator, washed with PBS (phosphate buffer solution) at the time of growth that occupies 70-80% of the culture dish every 2-3 days, and then subcultured by treating with Trypsin-EDTA (Gibco, USA).
The cells used in this Experimental Example were aliquoted into a 96-well culture plate at the density of 15,000-25,000 cells/well, and then acclimatized and cultured in a humidified 37° C. […] The cell viability was measured according to the standard method using a Cyto XTM cell viability assay kit ([…]). […] 5% CO2 incubator, followed by measuring the absorbance at 450 nm. The survival rate was measured by calculating the ratio of the absorbance changed compared to the absorbance measured in the group treated with DMSO alone.

[O-][S+](c1ccc(F)cc1)c1nccc2ccccc12 (centres unmarked) [Example 1, 1-((4-Fluorophenyl)Sulfinyl)Isoquinoline]
survival rate of artificial skin (artificial skin tissue; 50 μM, the maximum concentration): slight decrease of the survival rate
survival rate of artificial skin (artificial skin tissue; up to 20 μM): no significant decrease of the survival rate
fatty liver (LipidGreen2 fat staining) (zebrafish; 0.5, 1 and 5 μM mixed with 5 μM tamoxifen, 22 hours, juvenile fish 5 days after fertilization): restored to the normal level
liver area (zebrafish; compound mixed with 5 μM tamoxifen, 22 hours (FIG. 8 top)): maintained at the liver area level of normal juvenile fish
fluorescence intensity of liver (LipidGreen2) (zebrafish; compound mixed with 5 μM tamoxifen, compared to tamoxifen group (FIG. 8 bottom)): decreased to the normal level
survival rate of artificial cornea [1]: no significant decrease of the survival rate
cytotoxicity ([2]; maximum test concentration of 100 μM): less than 50%
toxicity (cell viability) ([2]; up to 10 μM): no significant toxicity
